Publication PMC8161055, “Synthesis and α-Glucosidase Inhibition Activity of 2-[3-(Benzoyl/4-bromobenzoyl)-4-hydroxy-1,1-dioxido-2H-benzo[e][1,2]thiazin-2-yl]-N-arylacetamides: An In Silico and Biochemical Approach” (Molecules, 2021)
Like-named read-outs stand apart in the source and are kept apart here.

Assays:
α-glucosidase = biological target: T1, α-glucosidase (Saccharomyces cerevisiae, UniProt P53341); experiment: biochemical; format: biochemical; details: for inhibition at 200 µM: read-out: Inhibitions (%); for effectiveness as inhibitor compared to acarbose: ratio of IC50 values vs acarbose
T1 construct: purchased Sigma-Aldrich, Munich, Germany
Protocol: In vitro analysis of all the synthesized compounds was performed in order to justify the validity of in silico outcomes. Results were found in good agreement with the in silico study. […] A general spectrophotometric technique was used to perform the α-glucosidase inhibition assay with slight modifications. […] The experiment was repeated thrice and inhibition percentages were calculated using the following formula. % Inhibition = [(A control − A sample) / A control] × 100(1) where ‘A’ stands for absorbance.

T1 sequence (P53341 whole entry): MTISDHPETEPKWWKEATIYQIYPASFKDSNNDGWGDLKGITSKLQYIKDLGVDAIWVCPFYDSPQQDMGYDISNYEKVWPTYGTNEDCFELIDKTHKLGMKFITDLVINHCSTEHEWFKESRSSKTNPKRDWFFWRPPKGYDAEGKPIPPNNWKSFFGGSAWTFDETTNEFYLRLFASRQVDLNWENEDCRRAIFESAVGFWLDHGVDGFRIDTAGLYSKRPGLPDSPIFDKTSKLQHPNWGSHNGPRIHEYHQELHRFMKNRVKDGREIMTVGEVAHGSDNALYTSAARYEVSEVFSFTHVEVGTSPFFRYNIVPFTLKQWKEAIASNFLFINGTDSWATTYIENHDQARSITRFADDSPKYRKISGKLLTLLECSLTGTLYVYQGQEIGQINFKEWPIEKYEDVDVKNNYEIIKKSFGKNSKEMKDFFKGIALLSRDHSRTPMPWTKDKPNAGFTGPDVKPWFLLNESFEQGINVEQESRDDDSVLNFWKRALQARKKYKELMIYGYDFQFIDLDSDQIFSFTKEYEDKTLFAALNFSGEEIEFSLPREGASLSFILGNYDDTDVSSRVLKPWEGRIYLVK

IC50 (α-glucosidase; PNPG substrate, pH 6.8, 37 °C, read-out: IC50)	Inhibitions (%) (α-glucosidase; at 200 μM concentration)	Compound	inhibition at 200 µM (α-glucosidase)	melting point	IC50 (α-glucosidase)	effectiveness as inhibitor compared to acarbose (α-glucosidase)
58.5 µM	65%	2-(3-(4-Bromobenzoyl)-4-hydroxy-1,1-dioxido-2H-benzo[e][1,2]thiazin-2-yl)-N-(4-methoxyphenyl)acetamide [Compound 12m]	–	–	–	–
–	–	O=C(C1=C(O)c2ccccc2S(=O)(=O)N1)c1ccccc1 [Compound 9a, (4-Hydroxy-1,1-dioxido-2H-benzo[e][1,2]thiazin-3-yl)(phenyl)methanone]	20%	156 to 157 °C	–	–
–	–	O=C(C1=C(O)c2ccccc2S(=O)(=O)N1)c1ccc(Br)cc1 [Compound 9b, (4-Bromophenyl)(4-hydroxy-1,1-dioxido-2H-benzo[e][1,2]thiazin-3-yl)methanone]	55%	144 to 146 °C	> 100 µM	–
–	–	O=C(CN1C(C(=O)c2ccccc2)=C(O)c2ccccc2S1(=O)=O)Nc1ccccc1Cl [Compound 11a, 2-(3-Benzoyl-4-hydroxy-1,1-dioxido-2H-benzo[e][1,2]thiazin-2-yl)-N-(2-chlorophenyl)acetamide]	39%	141 to 142 °C	–	–
–	–	O=C(CN1C(C(=O)c2ccccc2)=C(O)c2ccccc2S1(=O)=O)Nc1cccc(Cl)c1 [Compound 11b, 2-(3-Benzoyl-4-hydroxy-1,1-dioxido-2H-benzo[e][1,2]thiazin-2-yl)-N-(3-chlorophenyl)acetamide]	32%	182 to 184 °C	–	–
–	–	O=C(CN1C(C(=O)c2ccccc2)=C(O)c2ccccc2S1(=O)=O)Nc1ccc(Cl)cc1 [Compound 11c, 2-(3-Benzoyl-4-hydroxy-1,1-dioxido-2H-benzo[e][1,2]thiazin-2-yl)-N-(4-chlorophenyl)acetamide]	79%	146 to 148 °C	30.6 µM	–
–	–	Cc1ccccc1NC(=O)CN1C(C(=O)c2ccccc2)=C(O)c2ccccc2S1(=O)=O [Compound 11d, 2-(3-Benzoyl-4-hydroxy-1,1-dioxido-2H-benzo[e][1,2]thiazin-2-yl)-N-(o-tolyl)acetamide]	10%	165 to 167 °C	–	–
–	–	Cc1cccc(NC(=O)CN2C(C(=O)c3ccccc3)=C(O)c3ccccc3S2(=O)=O)c1 [Compound 11e, 2-(3-Benzoyl-4-hydroxy-1,1-dioxido-2H-benzo[e][1,2]thiazin-2-yl)-N-(m-tolyl)acetamide]	15%	177 to 178 °C	–	–
–	–	Cc1ccc(NC(=O)CN2C(C(=O)c3ccccc3)=C(O)c3ccccc3S2(=O)=O)cc1 [Compound 11f, 2-(3-Benzoyl-4-hydroxy-1,1-dioxido-2H-benzo[e][1,2]thiazin-2-yl)-N-(p-tolyl)acetamide]	37%	136 to 137 °C	–	–
–	–	O=C(CN1C(C(=O)c2ccccc2)=C(O)c2ccccc2S1(=O)=O)Nc1ccccc1[N+](=O)[O-] [Compound 11g, 2-(3-Benzoyl-4-hydroxy-1,1-dioxido-2H-benzo[e][1,2]thiazin-2-yl)-N-(2-nitrophenyl)acetamide]	58%	157 to 158 °C	88.1 µM	–
–	–	O=C(CN1C(C(=O)c2ccccc2)=C(O)c2ccccc2S1(=O)=O)Nc1cccc([N+](=O)[O-])c1 [Compound 11h, 2-(3-Benzoyl-4-hydroxy-1,1-dioxido-2H-benzo[e][1,2]thiazin-2-yl)-N-(3-nitrophenyl)acetamide]	63%	170 to 172 °C	47.1 µM	–
–	–	O=C(CN1C(C(=O)c2ccccc2)=C(O)c2ccccc2S1(=O)=O)Nc1ccc([N+](=O)[O-])cc1 [Compound 11i, 2-(3-Benzoyl-4-hydroxy-1,1-dioxido-2H-benzo[e][1,2]thiazin-2-yl)-N-(4-nitrophenyl)acetamide]	77%	194 to 195 °C	40.4 µM	–
–	–	O=C(CN1C(C(=O)c2ccccc2)=C(O)c2ccccc2S1(=O)=O)Nc1cccc(Br)c1 [Compound 11j, 2-(3-Benzoyl-4-hydroxy-1,1-dioxido-2H-benzo[e][1,2]thiazin-2-yl)-N-(3-bromophenyl)acetamide]	50%	163 to 166 °C	> 100 µM	–
–	–	O=C(CN1C(C(=O)c2ccccc2)=C(O)c2ccccc2S1(=O)=O)Nc1ccc(Br)cc1 [Compound 11k, 2-(3-Benzoyl-4-hydroxy-1,1-dioxido-2H-benzo[e][1,2]thiazin-2-yl)-N-(4-bromophenyl)acetamide]	13%	150 to 153 °C	–	–
–	–	COc1ccccc1NC(=O)CN1C(C(=O)c2ccccc2)=C(O)c2ccccc2S1(=O)=O [Compound 11l, 2-(3-Benzoyl-4-hydroxy-1,1-dioxido-2H-benzo[e][1,2]thiazin-2-yl)-N-(2-methoxyphenyl)acetamide]	54%	199 to 200 °C	> 100 µM	–
–	–	COc1ccc(NC(=O)CN2C(C(=O)c3ccccc3)=C(O)c3ccccc3S2(=O)=O)cc1 [Compound 11m, 2-(3-Benzoyl-4-hydroxy-1,1-dioxido-2H-benzo[e][1,2]thiazin-2-yl)-N-(4-methoxyphenyl)acetamide]	69%	164 to 165 °C	–	–
–	–	O=C(CN1C(C(=O)c2ccc(Br)cc2)=C(O)c2ccccc2S1(=O)=O)Nc1ccccc1Cl [Compound 12a, 2-(3-(4-Bromobenzoyl)-4-hydroxy-1,1-dioxido-2H-benzo[e][1,2]thiazin-2-yl)-N-(2-chlorophenyl)acetamide]	79%	180 to 181 °C	18.2 µM	roughly three-fold
–	–	O=C(CN1C(C(=O)c2ccc(Br)cc2)=C(O)c2ccccc2S1(=O)=O)Nc1cccc(Cl)c1 [Compound 12b, 2-(3-(4-Bromobenzoyl)-4-hydroxy-1,1-dioxido-2H-benzo[e][1,2]thiazin-2-yl)-N-(3-chlorophenyl)acetamide]	47%	148 to 150 °C	–	–
–	–	O=C(CN1C(C(=O)c2ccc(Br)cc2)=C(O)c2ccccc2S1(=O)=O)Nc1ccc(Cl)cc1 [Compound 12c, 2-(3-(4-Bromobenzoyl)-4-hydroxy-1,1-dioxido-2H-benzo[e][1,2]thiazin-2-yl)-N-(4-chlorophenyl)acetamide]	61%	181 to 184 °C	> 100 µM	–
–	–	Cc1ccccc1NC(=O)CN1C(C(=O)c2ccc(Br)cc2)=C(O)c2ccccc2S1(=O)=O [Compound 12d, 2-(3-(4-Bromobenzoyl)-4-hydroxy-1,1-dioxido-2H-benzo[e][1,2]thiazin-2-yl)-N-(o-tolyl)acetamide]	76%	193 to 194 °C	20.8 µM	roughly three-fold
–	–	Cc1cccc(NC(=O)CN2C(C(=O)c3ccc(Br)cc3)=C(O)c3ccccc3S2(=O)=O)c1 [Compound 12e, 2-(3-(4-Bromobenzoyl)-4-hydroxy-1,1-dioxido-2H-benzo[e][1,2]thiazin-2-yl)-N-(m-tolyl)acetamide]	71%	143 to 144 °C	35.1 µM	–
–	–	Cc1ccc(NC(=O)CN2C(C(=O)c3ccc(Br)cc3)=C(O)c3ccccc3S2(=O)=O)cc1 [Compound 12f, 2-(3-(4-Bromobenzoyl)-4-hydroxy-1,1-dioxido-2H-benzo[e][1,2]thiazin-2-yl)-N-(p-tolyl)acetamide]	20%	190 to 192 °C	–	–
